Experimental data: ChEMBL document CHEMBL1201862, “PubChem BioAssay data set” (2004)
The source made the active and inactive calls.

Assays:
[1] = molecular target: T1, Runt-related transcription factor 1/Core-binding factor subunit beta (Homo sapiens, UniProt Q01196+Q13951); assay: inhibitors of RUNX1 Runt–CBFb-SMMHC binding, primary screen, biochemical, FRET, Cerulean-Runt, Venus-CBFb-SMMHC, uHTS (AID 1434); type: protein assay;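 also: partner is the CBFb-SMMHC leukemia fusion protein rather than wild-type CBFb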
T1 sequence (Q01196 whole entry, the tested form may be a part): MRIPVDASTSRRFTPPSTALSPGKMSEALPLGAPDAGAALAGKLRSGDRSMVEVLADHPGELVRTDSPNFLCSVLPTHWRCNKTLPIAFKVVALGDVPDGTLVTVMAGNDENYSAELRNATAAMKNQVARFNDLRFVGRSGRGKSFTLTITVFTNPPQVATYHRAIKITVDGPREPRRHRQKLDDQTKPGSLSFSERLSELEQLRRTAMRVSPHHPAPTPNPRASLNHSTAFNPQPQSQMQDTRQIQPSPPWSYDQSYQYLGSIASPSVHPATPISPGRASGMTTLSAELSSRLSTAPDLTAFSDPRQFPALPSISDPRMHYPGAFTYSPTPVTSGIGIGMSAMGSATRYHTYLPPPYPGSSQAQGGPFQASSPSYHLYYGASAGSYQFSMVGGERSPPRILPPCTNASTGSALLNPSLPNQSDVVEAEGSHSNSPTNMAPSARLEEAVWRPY
T1 sequence (Q13951 whole entry, the tested form may be a part): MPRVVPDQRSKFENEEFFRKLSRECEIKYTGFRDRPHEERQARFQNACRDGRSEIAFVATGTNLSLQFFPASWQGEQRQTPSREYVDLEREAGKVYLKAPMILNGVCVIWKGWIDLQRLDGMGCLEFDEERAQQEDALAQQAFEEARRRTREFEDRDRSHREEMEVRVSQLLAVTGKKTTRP

[2] = molecular target: T1, Runt-related transcription factor 1/Core-binding factor subunit beta; assay: inhibitors of RUNX1 Runt–CBFb-SMMHC binding, biochemical, TR-FRET (AID 1438); type: protein assay
HEK293 [3] = assay: NOD1 signaling inhibitors, primary screen, cell-based, luminescence, uHTS (AID 1578); type: functional; conditions: Homo sapiens
HEK293 [4] = assay: cells; type: functional, cell-based; conditions: Homo sapiens
HEK293 [5] = assay: cells; type: functional, cell-based; conditions: Homo sapiens; remark: listed apart in the source
[6] = molecular target: Nucleotide-binding oligomerization domain-containing protein 2 (Homo sapiens, UniProt Q9HC29); assay: NOD2 signaling inhibitors, cell-based, luminescence, uHTS, HEK293 (AID 1566); type: functional
Sequence of Nucleotide-binding oligomerization domain-containing protein 2 (Q9HC29 whole entry, the tested form may be a part): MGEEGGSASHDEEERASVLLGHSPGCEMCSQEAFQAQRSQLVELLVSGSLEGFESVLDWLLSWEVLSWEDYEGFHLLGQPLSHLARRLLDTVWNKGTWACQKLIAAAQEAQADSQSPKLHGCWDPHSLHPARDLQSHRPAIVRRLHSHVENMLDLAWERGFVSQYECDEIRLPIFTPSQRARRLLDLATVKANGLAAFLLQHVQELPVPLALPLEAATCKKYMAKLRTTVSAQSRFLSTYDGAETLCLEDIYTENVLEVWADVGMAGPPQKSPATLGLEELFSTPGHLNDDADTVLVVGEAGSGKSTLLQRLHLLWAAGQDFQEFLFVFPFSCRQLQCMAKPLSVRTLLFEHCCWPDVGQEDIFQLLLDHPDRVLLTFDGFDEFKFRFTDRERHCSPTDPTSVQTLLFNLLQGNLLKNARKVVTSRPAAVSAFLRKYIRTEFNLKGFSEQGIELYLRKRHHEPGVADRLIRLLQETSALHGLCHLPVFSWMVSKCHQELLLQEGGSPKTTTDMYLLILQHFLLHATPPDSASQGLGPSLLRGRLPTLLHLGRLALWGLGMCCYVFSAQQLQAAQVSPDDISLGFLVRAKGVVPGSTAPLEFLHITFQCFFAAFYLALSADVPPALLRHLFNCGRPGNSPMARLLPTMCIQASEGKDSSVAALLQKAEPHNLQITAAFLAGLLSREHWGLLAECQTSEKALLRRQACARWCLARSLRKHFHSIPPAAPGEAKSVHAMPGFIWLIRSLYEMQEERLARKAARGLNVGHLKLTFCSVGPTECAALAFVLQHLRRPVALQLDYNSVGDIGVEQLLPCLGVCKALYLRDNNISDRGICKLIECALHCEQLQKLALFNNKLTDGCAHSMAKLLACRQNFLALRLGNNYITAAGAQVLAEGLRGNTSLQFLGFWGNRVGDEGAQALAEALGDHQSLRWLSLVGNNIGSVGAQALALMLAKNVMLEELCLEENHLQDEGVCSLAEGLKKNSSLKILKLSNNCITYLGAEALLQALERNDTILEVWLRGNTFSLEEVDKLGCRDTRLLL

HEK293 [7] = assay: NOD2 signaling inhibitors in MDP-stimulated cells, cell-based, uHTS, luminescence (AID 2001); type: functional; conditions: Homo sapiens
HEK293 [8] = assay: cells; type: functional, cell-based; conditions: Homo sapiens; remark: listed apart in the source
[9] = molecular target: T2, Calpain-2 catalytic subunit (Sus scrofa, UniProt P43367); assay: pig calpain II inhibitor potency, dose response, biochemical, fluorogenic peptide substrate (AID 1420); type: functional
T2 sequence (P43367 whole entry): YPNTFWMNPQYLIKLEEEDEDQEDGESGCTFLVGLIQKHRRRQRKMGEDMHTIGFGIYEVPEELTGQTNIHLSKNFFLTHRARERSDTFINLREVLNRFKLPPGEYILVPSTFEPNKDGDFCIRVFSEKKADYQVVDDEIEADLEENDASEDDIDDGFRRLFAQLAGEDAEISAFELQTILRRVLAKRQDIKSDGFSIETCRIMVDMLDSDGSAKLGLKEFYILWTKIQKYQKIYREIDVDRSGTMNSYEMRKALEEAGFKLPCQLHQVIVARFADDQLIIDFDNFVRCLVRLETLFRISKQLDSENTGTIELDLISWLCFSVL

[10] = molecular target: T3, Corticotropin-releasing factor receptor 2/Corticotropin-releasing factor-binding protein (Homo sapiens, UniProt P24387+Q13324); assay: Dose Response confirmation of uHTS hits for small molecule antagonists of the CRF-binding protein and CRF-R2 receptor complex.; type: functional; conditions: read-out: IC50_Mean
T3 sequence (Q13324 whole entry): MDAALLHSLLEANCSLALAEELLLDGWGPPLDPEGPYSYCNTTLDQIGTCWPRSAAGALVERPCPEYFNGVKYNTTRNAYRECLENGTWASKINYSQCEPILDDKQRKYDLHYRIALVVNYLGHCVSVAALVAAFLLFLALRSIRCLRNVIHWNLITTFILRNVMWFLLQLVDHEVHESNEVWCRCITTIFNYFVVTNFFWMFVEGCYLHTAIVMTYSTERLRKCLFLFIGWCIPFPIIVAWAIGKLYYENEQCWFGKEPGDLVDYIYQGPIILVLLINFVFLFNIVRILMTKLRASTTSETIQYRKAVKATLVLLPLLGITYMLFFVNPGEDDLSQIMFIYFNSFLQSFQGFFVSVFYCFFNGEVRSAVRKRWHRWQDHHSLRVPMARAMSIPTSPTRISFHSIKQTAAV
T3 sequence (P24387 whole entry): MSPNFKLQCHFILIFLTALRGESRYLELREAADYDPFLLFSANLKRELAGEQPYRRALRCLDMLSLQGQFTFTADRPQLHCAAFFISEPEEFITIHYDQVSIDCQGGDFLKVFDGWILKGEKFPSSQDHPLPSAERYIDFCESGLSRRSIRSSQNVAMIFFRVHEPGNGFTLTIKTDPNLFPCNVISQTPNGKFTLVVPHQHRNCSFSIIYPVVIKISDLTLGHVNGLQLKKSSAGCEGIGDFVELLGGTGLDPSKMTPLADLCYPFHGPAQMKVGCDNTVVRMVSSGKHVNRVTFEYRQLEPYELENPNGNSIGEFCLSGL

[11] = molecular target: T3, Corticotropin-releasing factor receptor 2/Corticotropin-releasing factor-binding protein; assay: activators of CRF receptor 2 with binding protein – uHTS hits, confirmation (AID 602473); type: functional; conditions: read-out: EC50_Mean
[12] = molecular target: DNA dC->dU-editing enzyme APOBEC-3A (Homo sapiens, UniProt P31941); assay: Dose Response confirmation of small molecule APOBEC3A DNA Deaminase Inhibitors via a fluorescence-based single-stranded DNA deaminase assay. [Related pubchem assays (depositor defined):AID493011, AID493024]; type: functional
Sequence of DNA dC->dU-editing enzyme APOBEC-3A (P31941 whole entry): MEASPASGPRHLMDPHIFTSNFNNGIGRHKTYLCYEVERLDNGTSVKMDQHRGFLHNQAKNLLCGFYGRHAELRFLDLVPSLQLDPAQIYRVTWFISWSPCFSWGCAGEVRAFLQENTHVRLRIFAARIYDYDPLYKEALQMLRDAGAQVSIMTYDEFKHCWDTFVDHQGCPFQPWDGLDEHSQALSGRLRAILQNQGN

[13] = molecular target: DNA dC->dU-editing enzyme APOBEC-3G (Homo sapiens, UniProt Q9HC16); type: functional;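 also: Dose-response counterscreen measuring inhibition of APOBEC3G DNA deaminase activity, run while confirming APOBEC3A inhibitors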
Sequence of DNA dC->dU-editing enzyme APOBEC-3G (Q9HC16 whole entry): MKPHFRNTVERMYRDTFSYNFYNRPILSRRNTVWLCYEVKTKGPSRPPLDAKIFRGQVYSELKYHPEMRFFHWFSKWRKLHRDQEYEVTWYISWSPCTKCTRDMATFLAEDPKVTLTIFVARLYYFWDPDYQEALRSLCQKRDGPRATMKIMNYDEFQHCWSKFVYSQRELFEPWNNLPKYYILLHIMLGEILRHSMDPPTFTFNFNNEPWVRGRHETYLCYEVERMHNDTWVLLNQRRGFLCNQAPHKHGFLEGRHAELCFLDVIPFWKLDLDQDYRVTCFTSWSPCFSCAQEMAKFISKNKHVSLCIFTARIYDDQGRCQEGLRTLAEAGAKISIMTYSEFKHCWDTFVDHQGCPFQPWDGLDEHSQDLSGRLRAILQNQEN

[14] = microbe, parasite or virus in culture; type: functional; conditions: Mycobacterium tuberculosis
[15] = THP-1 cell cytotoxicity, dose response, cytotoxicity control for non-replicating M. tuberculosis project (AID 489025); type: functional
[16] = Vero E6 cell cytotoxicity, dose response, cytotoxicity control for non-replicating M. tuberculosis project, secondary assay (AID 492998); type: functional, VeroE6; conditions: Vero C1008
cells = type: functional

In the case of CCCOc1ccc(C2C(C(=O)OC)=CN(CCOC)C=C2C(=O)OC)cc1, the IC50 [1] was 2.22 µM (active) and the IC50 [2] was > 100 µM (inactive).

For CCc1ccc(C(=O)OCC(=O)c2c(N)n(CC(C)C)c(=O)n(C)c2=O)cc1, the EC50 (HEK293 [3]) was 12.4 µM (active), the IC50 (HEK293 [4]) was 8.39 µM (active) and the IC50 (HEK293 [5]) was 13.8 µM (active). For the same compound, the EC50 [6] was > 20 µM (inactive), the IC50 (HEK293 [7]) was 15.6 µM (inactive) and the IC50 (HEK293 [8]) was > 20 µM (inactive). The IC50 [9] was 2.96 µM (not active).

For Cc1nc2ccc(NS(=O)(=O)c3ccc(C)c(C)c3)cc2s1, the EC50 (HEK293 [3]) was 3.65 µM (active), the IC50 (HEK293 [4]) was 10.9 µM (active) and the IC50 (HEK293 [5]) was > 20 µM (inactive). For the same compound, the EC50 [6] was 9.53 µM (active), the IC50 (HEK293 [7]) was 10.4 µM (inactive) and the IC50 (HEK293 [8]) was > 20 µM (inactive). The IC50 [10] was > 47.1 µM (inactive) and the EC50 [11] was > 53 µM (inactive).

With CCN1C(NCCCOC(C)C)=N[C@@H](CCc2ccccc2)[C@H](C(=O)NCCCOC(C)C)[C@H]1C the IC50 [12] was 2.91 µM (active) and the IC50 [13] was 3.6 µM (active).

In the case of FC(F)(Cl)c1nnc2ccc(Cl)nn12, the CC50 [14] was 16.5 µM (active), the CC50 [15] was 10.8 µM (active) and the CC50 [16] was 16.7 µM (active). The IC50 (cells) was 0.75 µM (active).
